# Laboratory results: ChEMBL document CHEMBL3102778, “Design of the influenza virus inhibitors targeting the PA endonuclease using 3D-QSAR modeling, side-chain hopping, and docking” (Bioorg Med Chem Lett, 2014)
# Assay: Inhibition of influenza A virus RNA-dependent RNA polymerase subunit PA endonuclease activity
row,SMILES,pIC50
1,O=C(Nc1ccccc1)Nc1ccc2c(C(=O)c3ccccc3)c(O)n(O)c2c1,4.54
2,CC(C)/C=C1\N=C(CC(C)C)C(=O)N(O)C1=O,5.26
3,CC(=O)c1c(O)n(O)c2cc(NC(=O)c3ccc4ccccc4c3)ccc12,5.05
4,CC(C)CC1=N/C(=C\c2ccc(F)cc2)C(=O)N(O)C1=O,6.05
5,CCC(=O)c1c(O)n(O)c2cc(NC(=O)Nc3ccccc3Cl)ccc12,4.3
6,OC(CN1CCCCC1)Cn1c2c(c3ccccc31)CCCC2 (stereo unspecified),4.44
7,O=C(O)/C(O)=C/C(=O)C1(Cc2ccc(Cl)cc2)CCN(Cc2ccc(Cl)cc2)CC1,6.27
8,O=C(O)/C(O)=C/C(=O)C1(Cc2ccc(Cl)cc2)CCCN(Cc2ccccc2)C1 (stereo unspecified),5.96
9,CC(C)CC1=N/C(=C\c2ccccc2)C(=O)N(O)C1=O,5.32
10,COc1ccc(/C=C2\N=C(CC(C)C)C(=O)N(O)C2=O)cc1,6.1
11,COc1ccc(/C=C2\N=C(Cc3ccccc3)C(=O)N(O)C2=O)cc1,5.55
12,O=C1C(Cc2ccccc2)=N/C(=C\c2ccc(F)cc2)C(=O)N1O,5.46
13,O=C1C(Cc2ccc(F)cc2)=N/C(=C\c2ccccc2)C(=O)N1O,5.19
14,O=C(O)/C(O)=C/C(=O)C1(Cc2ccc(Cl)cc2)CCCN(S(=O)(=O)Cc2ccccc2)C1 (stereo unspecified),6.72
15,CCC(=O)c1c(O)n(O)c2cc(NC(=O)Nc3ccc(Cl)cc3)ccc12,4.42
16,O=C(Nc1ccc2c(C(=O)c3ccccc3)c(O)n(O)c2c1)NC1CCCCC1,4.3
17,O=C(Nc1ccc2c(c1)N(O)C(=O)/C2=C(\O)c1ccccc1)c1ccc2ccccc2c1,5.1
18,C/C(O)=C1/C(=O)N(O)c2cc(NC(=O)c3cccs3)ccc21,4.4

row,SMILES,pIC50
1,C/C(O)=C1/C(=O)N(O)c2cc(NC(=O)/C=C/c3ccccc3Cl)ccc21,4.59
2,O=C(Nc1ccc2c(c1)N(O)C(=O)/C2=C(\O)c1ccccc1)c1cnc2ccccc2n1,4.77
3,O=C(/C=C/c1ccccc1Cl)Nc1ccc2c(c1)N(O)C(=O)/C2=C(\O)c1ccccc1,5.02
4,Cc1nc(NCC(=O)O)sc1S(=O)(=O)Nc1ccc2c(c1)N(O)C(=O)/C2=C(\O)c1ccccc1,4.49
5,CC/C(O)=C1/C(=O)N(O)c2cc(NC(=O)Nc3ccccc3)ccc21,4.4
6,CC/C(O)=C1/C(=O)N(O)c2cc(NC(=O)c3cnc4ccccc4n3)ccc21,5
7,CC/C(O)=C1/C(=O)N(O)c2cc(NC(=O)/C=C/c3ccccc3Cl)ccc21,5.1
8,O=C(Nc1ccc2c(c1)N(O)C(=O)/C2=C(\O)c1ccccc1)c1ccccc1,5
9,C/C(O)=C1/C(=O)N(O)c2cc(NC(=O)c3cnc4ccccc4n3)ccc21,4.96
10,Cc1cc(C(=O)Nc2ccc3c(c2)N(O)C(=O)/C3=C(\O)c2ccccc2)no1,5.02
11,O=C(Nc1ccc2c(c1)N(O)C(=O)/C2=C(\O)c1ccccc1)c1cccs1,4.7
12,O=C(Nc1ccc2c(c1)N(O)C(=O)/C2=C(\O)c1ccccc1)c1ccc(Cl)cc1Cl,4.42
13,O=C1/C(=C(\O)c2ccccc2)c2ccc(NS(=O)(=O)c3cccs3)cc2N1O,4.32
14,O=C(Nc1ccc2c(c1)N(O)C(=O)/C2=C(\O)c1ccccc1)C1CCCCC1,4.75
15,CC/C(O)=C1/C(=O)N(O)c2cc(NC(=O)c3cccs3)ccc21,4.46
16,CC/C(O)=C1/C(=O)N(O)c2cc(NC(=O)Nc3cccc(C(=O)O)c3)ccc21,5
17,CC(=O)c1c(O)n(O)c2cc(NC(=O)Nc3cccc(C(=O)O)c3)ccc12,4.85
18,CCC(=O)c1c(O)n(O)c2cc(NC(=O)c3ccc(Cl)cc3Cl)ccc12,4.35
